“And” between values parts separate entries of the source, which are not always exact repeats. Equal values may be shown once.
System: HCV pseudoparticles
Assay: HCV pseudoparticle (HCVpp) entry assay in Huh7 hepatoma cells, luciferase readout
Type: cell-based, hepatitis C virus
Settings: for % of control at ~30 uM: percentage of hepatitis C virus cellular entry at 30 μM peptide vs uninhibited control
Experimental: HCV pseudotype particle generation. Single cycle HCV pseudoparticles are composed of a replication-defective HIV genome and HCV envelope proteins. These pseudoparticles were made by transfecting 293T cells with 5 ug of each pNL43E-R-luc (Chen et al., J. Virol. 68(2):654-60 (1994)) and plasmid expressing HCV envelope proteins pCMV/E1-2 with profection transfection kit from Promega (Madison, Wis.). The medium was refreshed 12-24 hours after transfection and supernatant was collected 48 hours after transfection. The supernatant from a transfection of only pNL43E-R-luc was used each time as a control for non specific entry events.
Infection of hepatoma cell lines with HCV pseudotype particles and screen for inhibitory peptides. The hepatoma cells, Huh7, was seeded at 8000 cells in 90 ul medium in 96-well plate. In the case of the inhibitor screen, the inhibitor was incubated with cells for one hour at 37° C. and then 50 ul viral supernatant was added to the cells 24 hours after seeding. The viral stock was pre-tittered and diluted to yield approximately 10,000 to 20,000 RLU. The cells were incubated at 37° C. with 5% CO2 for additional 72 hours and were harvested for luciferase assay. Peptide stocks were prepared in 100% DMSO at 10 mg/ml and were first screened at 100 ug/ml and then a dose responsive curve was generated with 10 points 3-fold titration starting from 100 ug/ml.
The peptide of SEQ ID NO: 77 was first serial diluted by the factor of 3 in 100% DMSO from 100 ug/ml and then transferred to the assay plates at 100-fold dilution. The peptide was first incubated with cells and HCVpp (A) or HIVpp (B), respectively, for 30 minutes at […] in this experiment. Then, the medium containing the peptide was removed from the cells and virus with peptide was added to the cells. Cells were incubated for 72 hours and then were harvested for luciferase assay. Two separate trials were performed.
In addition, the peptide of SEQ ID NO: 77 was mutated at several positions and assayed in the HCV entry assay discussed above. […] The assays were performed essentially as described above.

[1] = 0.1 nM of peptide (printed for three rows), two values per peptide and row
[2] = 0.3 nM of peptide, two values per peptide
[3] = 1 nM of peptide, two values per peptide
[4] = 3 nM of peptide, two values per peptide
[5] = 10 nM of peptide, two values per peptide
[6] = 30 nM of peptide, two values per peptide
[7] = 100 nM of peptide, two values per peptide
[8] = 300 nM of peptide, two values per peptide
[9] = 10000 nM of peptide, two values per peptide

A-A-K-W-E-Y-V-L-L-L-F-L-L (AAKWEYVLLLFLL; HCV peptide) [SEQ ID NO: 87, Ala-scan]
% control (HCVpp entry), alanine scanning [1]: 90 % control and 108 % control and 113 % control and 93 % control and 104 % control
% control (HCVpp entry), alanine scanning [2]: 84 % control and 75 % control
% control (HCVpp entry), alanine scanning [3]: 110 % control and 93 % control
% control (HCVpp entry), alanine scanning [4]: 92 % control and 68 % control
% control (HCVpp entry), alanine scanning [5]: 45 % control and 57 % control
% control (HCVpp entry), alanine scanning [6]: 42 % control and 51 % control
% control (HCVpp entry), alanine scanning [7]: 19 % control and 15 % control
% control (HCVpp entry), alanine scanning [8]: 16 % control and 13 % control
% control (HCVpp entry), alanine scanning [9]: 15 % control and 23 % control
% control (HCVpp entry), alanine scanning (30000 nM of peptide, two values per peptide): 11 % control and 6 % control
% of control at ~30 uM: 14%

A-G-K-W-E-Y-V-L-L-L-F-L-L (AGKWEYVLLLFLL; HCV peptide) [SEQ ID NO: 83, Gly-scan]
% control (HCVpp entry), glycine scanning (0.00003 uM of peptide, two values per peptide and row): 98 % control and 80 % control and 128 % control and 94 % control
% control (HCVpp entry), glycine scanning (0.0001 uM of peptide, two values per peptide): 75 % control and 94 % control
% control (HCVpp entry), glycine scanning (0.0003 uM of peptide, two values per peptide): 94 % control and 83 % control
% control (HCVpp entry), glycine scanning (0.001 uM of peptide, two values per peptide): 70 % control and 67 % control
% control (HCVpp entry), glycine scanning (0.003 uM of peptide, two values per peptide): 51 % control and 66 % control
% control (HCVpp entry), glycine scanning (0.01 uM of peptide, two values per peptide): 76 % control and 56 % control
% control (HCVpp entry), glycine scanning (0.03 uM of peptide, two values per peptide): 43 % control and 62 % control
% control (HCVpp entry), glycine scanning (30 uM of peptide, two values per peptide): 18 % control and 15 % control
% of control at ~30 uM: 9%

A-I-A-W-E-Y-V-L-L-L-F-L-L (AIAWEYVLLLFLL; HCV peptide) [SEQ ID NO: 88, Ala-scan]
% control (HCVpp entry), alanine scanning [1]: 96 % control and 85 % control and 87 % control and 108 % control and 109 % control
% control (HCVpp entry), alanine scanning [2]: 91 % control and 101 % control
% control (HCVpp entry), alanine scanning [3]: 100 % control and 69 % control
% control (HCVpp entry), alanine scanning [4]: 81 % control and 93 % control
% control (HCVpp entry), alanine scanning [5]: 56 % control and 60 % control
% control (HCVpp entry), alanine scanning [6]: 53 % control and 66 % control
% control (HCVpp entry), alanine scanning [7]: 37 % control and 57 % control
% control (HCVpp entry), alanine scanning [8]: 42 % control and 45 % control
% control (HCVpp entry), alanine scanning [9]: 27 % control and 32 % control
% of control at ~30 uM: 9%

A-I-K-A-E-Y-V-L-L-L-F-L-L (AIKAEYVLLLFLL; HCV peptide) [SEQ ID NO: 89, Ala-scan]
% control (HCVpp entry), alanine scanning [1]: 76 % control and 84 % control and 95 % control and 104 % control and 105 % control and 96 % control
% control (HCVpp entry), alanine scanning [2]: 64 % control and 71 % control
% control (HCVpp entry), alanine scanning [3]: 96 % control and 85 % control
% control (HCVpp entry), alanine scanning [4]: 76 % control and 63 % control
% control (HCVpp entry), alanine scanning [5]: 57 % control and 63 % control
% control (HCVpp entry), alanine scanning [6]: 71 % control and 66 % control
% control (HCVpp entry), alanine scanning [7]: 38 % control and 41 % control
% control (HCVpp entry), alanine scanning [8]: 27 % control and 24 % control
% control (HCVpp entry), alanine scanning [9]: 17 % control and 24 % control
% of control at ~30 uM: 8%

A-I-K-K-E-Y-V-L-L-L-F-L-L (AIKKEYVLLLFLL; HCV peptide) [SEQ ID NO: 128]
% control (HCVpp entry), lysine scanning [1]: 80 % control and 86 % control and 107 % control and 102 % control and 87 % control and 103 % control
% control (HCVpp entry), lysine scanning [2]: 64 % control and 88 % control
% control (HCVpp entry), lysine scanning [3]: 99 % control and 72 % control
% control (HCVpp entry), lysine scanning [4]: 84 % control and 81 % control
% control (HCVpp entry), lysine scanning [5]: 63 % control and 92 % control
% control (HCVpp entry), lysine scanning [6]: 59 % control and 55 % control
% control (HCVpp entry), lysine scanning [7]: 52 % control and 46 % control
% control (HCVpp entry), lysine scanning [8]: 22 % control and 28 % control
% control (HCVpp entry), lysine scanning [9]: 7 % control and 4 % control

Source: patent US20100119483A1, “PEPTIDE VIRAL ENTRY INHIBITORS” (Schering Corporation, priority 2004, published 2010)
